Experimental data as given in US7179819B2, “VLA-4 inhibitor compounds” (Daiichi Pharmaceutical Co., Ltd., priority 1999, dated 2007).

Row | SMILES | melting point
1 | O=C(Nc1ccc(CC(=O)N2C[C@@H](F)C[C@H]2COc2ccc(C(=O)O)cc2)cc1)Nc1c(Cl)cccc1Cl [Compound 87, 4-[1-[4-[N′-(2,6-dichlorophenyl)ureido]phenylacetyl]-(4S)-fluoro-(2S)-pyrrolidinyl]methoxy benzoic acid] | 168 to 172 °C (dec.)
2 | COc1cc(CC(=O)N2C[C@@H](F)C[C@H]2COc2ccc(C(=O)O)cc2)ccc1NC(=O)Nc1c(Cl)cccc1Cl [Compound 88, 4-[1-[4-[N′-(2,6-dichlorophenyl)ureido]-3-methoxyphenylacetyl]-(4S)-fluoro-(2S)-pyrrolindinyl]methoxybenzoic acid] | 162 to 168 °C (dec.)
3 | COc1cc(CC(=O)N2C[C@@H](Cl)C[C@H]2COc2ccc(C(=O)O)cc2)ccc1NC(=O)Nc1ccccc1Br [Compound 103, 4-[1-[4-[N′-(2-bromophenyl)ureido]-3-methoxyphenylacetyl]-(4S)-chloro-(2S)-pyrrolidinyl]methoxybenzoic acid] | 127 to 132 °C
4 | COc1cc(CC(=O)N2C[C@@H](O)C[C@H]2COc2ccc(C(=O)O)cc2)ccc1NC(=O)Nc1ccccc1C [Compound 106] | 148 to 152 °C (dec.)
5 | COc1cc(CC(=O)N2C[C@@H](O)C[C@H]2COc2ccc(C(=O)O)cc2)ccc1NC(=O)Nc1ccccc1Cl [Compound 107, 4-[1-[4-[N′-(2-chlorophenyl)ureido]-3-methoxyphenylacetyl]-(4S)-hydroxy-(2S)-pyrrolidinyl]methoxybenzoic acid] | 138 to 142 °C (dec.)
6 | COc1cc(CC(=O)N2C[C@@H](O)C[C@H]2COc2ccc(C(=O)O)cc2)ccc1NC(=O)Nc1ccccc1Br [Compound 108] | 143 to 151 °C (dec.)
7 | COc1cc(CC(=O)N2C[C@H](O)C[C@H]2COc2ccc(C(=O)O)cc2)ccc1NC(=O)Nc1ccccc1Cl [Compound 109] | 137 to 142 °C
8 | COc1cc(CC(=O)N2C[C@H](O)C[C@H]2COc2ccc(C(=O)O)cc2)ccc1NC(=O)Nc1ccccc1C [Compound 110, 4-[(4R)-hydroxy-1-[3-methoxy-4-[N′-(2-methylphenyl)ureido]phenylacetyl]-(2S)-pyrrolidinylmethoxy]benzoic acid] | 178 to 182 °C
9 | COc1cc(CC(=O)N2C[C@@H](Oc3ccc(C(=O)O)cc3)C[C@H]2COc2ccc(C(=O)O)cc2)ccc1NC(=O)Nc1ccccc1C [Compound 116, 4-[(4S)-(4-carboxyphenoxy)-1-[3-methoxy-4-[N′-(2-methylphenyl)uriedo]phenylacetyl]-(2S)-pyrrolidinylmethoxy]benzoic acid] | 154 to 159 °C
10 | COc1cc(CC(=O)N2C[C@@H](Oc3ccc(C(=O)O)cc3)C[C@H]2COc2ccc(C(=O)O)cc2)ccc1NC(=O)Nc1ccccc1Cl [Compound 117, 4-[(4S)-(4-carboxyphenoxy)-1-[4-[N′-(2-chlorophenyl)uriedo]-3-methoxyphenylacetyl]-(2S)-pyrrolidinylmethoxy]benzoic acid] | 150 to 153 °C
11 | Cc1ccccc1NC(=O)Nc1ccc(CC(=O)N2C[C@@H](Oc3ccc(C(=O)O)cc3)C[C@H]2COc2ccc(C(=O)O)cc2)cc1 [Compound 119, 4-[(4S)-(4-carboxyphenoxy)-1-[4-[N′-(2-methylphenyl)uriedo]phenylacetyl]-(2S)-pyrrolidinylmethoxy]benzoic acid] | 157 to 160 °C
12 | COc1cc(CC(=O)N2C[C@@H](Oc3ccc4ncccc4c3)C[C@H]2COc2ccc(C(=O)O)cc2)ccc1NC(=O)Nc1ccccc1Cl [Compound 121] | 129 to 133 °C
13 | COc1cc(CC(=O)N2C[C@@H](Oc3ccc4ncccc4c3)C[C@H]2COc2ccc(C(=O)O)cc2)ccc1NC(=O)Nc1ccccc1Br [Compound 122] | 149 to 153 °C
14 | COc1cc(CC(=O)N2C[C@H](OC)C[C@H]2COc2ccc(C(=O)O)cc2)ccc1NC(=O)Nc1ccccc1C [Compound 135, 4-[(4R)-methoxy-1-[3-methoxy-4-[N′-(2-methylphenyl)ureido]phenylacetyl]-(2S)-pyrrolidinylmethoxy]benzoic acid] | 112 to 115 °C

Continued, values first:

Row | melting point | SMILES
15 | 111 to 116 °C | COc1cc(CC(=O)N2C[C@H](OC)C[C@H]2COc2ccc(C(=O)O)cc2)ccc1NC(=O)Nc1ccccc1F [Compound 136, 4-[1-[4-[N′-(2-fluorophenyl)ureido]-3-methoxyphenylacetyl]-(4R)-methoxy-(2S)-pyrrolidinylmethoxy]benzoic acid]
16 | 125 to 130 °C | COc1cc(CC(=O)N2C[C@H](OC)C[C@H]2COc2ccc(C(=O)O)cc2)ccc1NC(=O)Nc1ccccc1Br [Compound 138, 4-[1-[4-[N′-(2-bromophenyl)ureido]-3-methoxyphenylacetyl]-(4R)-methoxy-(2S)-pyrrolidinylmethoxy]benzoic acid]
17 | 162 to 164 °C | CN[C@@H]1C[C@@H](COc2ccc(C(=O)O)cc2)N(C(=O)Cc2ccc(NC(=O)Nc3ccccc3C)c(OC)c2)C1 [Compound 153, 4-[trans-1-[3-methoxy-4-[N′-(2-methylphenyl)ureido]phenylacetyl]4-methylamino-(2S)-pyrrolidinyl]methoxybenzoic acid]
18 | 135 to 142 °C | COc1cc(CC(=O)N2C[C@@H](NS(=O)(=O)c3ccc4ccccc4c3)C[C@H]2COc2ccc(C(=O)O)cc2)ccc1NC(=O)Nc1ccccc1Cl [Compound 161, 4-[cis-1-[4-[N′-(2-chlorophenyl)ureido]-3-methoxylphenylacetyl]-4-(2-naphthalenesulfonamido)-(2S)-pyrrolidinyl]methoxybenzoic acid]
19 | 130 to 132 °C | COc1cc(CC(=O)N2C[C@@H](NS(=O)(=O)c3c(C)cc(C)cc3C)C[C@H]2COc2ccc(C(=O)O)cc2)ccc1NC(=O)Nc1ccccc1Br [Compound 162]
20 | 125 to 128 °C | COc1cc(CC(=O)N2C[C@@H](NS(C)(=O)=O)C[C@H]2COc2ccc(C(=O)O)cc2)ccc1NC(=O)Nc1ccccc1Br [Compound 164, 4-[4-methanesulfonamido-1-[4-[N′-(2-bromophenyl)ureido]-3-methoxyphenylacetyl]-(2S)-pyrrolidinyl]methoxybenzoic acid]
21 | 130 to 134 °C | COc1cc(CC(=O)N2C3CCCCC3C[C@H]2COc2ccc(C(=O)O)cc2)ccc1NC(=O)Nc1ccccc1C (stereo partly drawn) [Compound 165, 4-[1-[3-methoxy-4-[N′-(2-methylphenyl)ureido]phenylacetyl]-(2S)-octahydroindolylmethoxy]benzoic acid]
22 | 118 to 123 °C | COc1cc(CC(=O)N2C3CCCCC3C[C@H]2COc2ccc(C(=O)O)cc2)ccc1NC(=O)Nc1ccccc1Br (stereo partly drawn) [Compound 167, 4-[1-[4-[N′-(2-bromophenyl)ureido]-3-methoxyphenylacetyl]-(2S)-octahydroindolylmethoxy]benzoic acid]
23 | 110 to 113 °C | COc1cc(CC(=O)N2CCC[C@H]2COC2CCC(C(=O)O)CC2)ccc1NC(=O)Nc1ccccc1C (stereo partly drawn) [Compound 174, 4-[[1-[3-methoxy-4-[N′(2-methylphenyl)ureido]phenylacetyl]-(2S)-pyrrolidinyl]methoxy]cyclohexanecarboxylic acid]
24 | 111 to 115 °C | COc1cc(CC(=O)N2CCC[C@H]2COC2CCC(C(=O)O)CC2)ccc1NC(=O)Nc1ccccc1Cl (stereo partly drawn) [Compound 175, 4-[[1-[4-[N′-(2-chlorophenyl)ureido]-3-methoxylphenylacetyl]-(2S)-pyrrolidinyl]methoxy]cyclohexanecarboxylic acid]
